Results reported in patent publication US7071168B2, “Anti-cancer compounds and methods related thereto” (The Regents of the University of Colorado, priority 1998, dated 2006).

Legend:
[1] = test system: SCLC strain SHP-77; test: Colorimetric tetrazolium (MTT) assay for cell survival, SCLC strain SHP-77; format: cell-based, human
In short: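 MTT assay: cells seeded overnight, treated in triplicate across a concentration range for 4 days at 37 °C, 5% CO2. On day 5, MTT was added for 4 h; formazan was dissolved in acidified isopropanol and absorbance read.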

[2] = test system: bradykinin response of isolated guinea pig ileum; test: Anti-bradykinin activity on isolated guinea pig ileum
In short: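 Bradykinin concentration-effect curves were run in the absence and presence of compound. Tissue: 25 mm terminal ileum from male Hartley guinea pigs fasted overnight, held at 1 g tension in O2/CO2-bubbled Krebs' solution after 1 h equilibration.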

[3] = molecular target: T1, cloned human bradykinin B2 receptors (Homo sapiens, UniProt P30411); test: Anti-bradykinin activity on cloned human B2 receptors (CHO cells, Cytosensor microphysiometer); format: cell-based; settings: higher numbers indicate higher potency
T1 sequence (P30411 1-391): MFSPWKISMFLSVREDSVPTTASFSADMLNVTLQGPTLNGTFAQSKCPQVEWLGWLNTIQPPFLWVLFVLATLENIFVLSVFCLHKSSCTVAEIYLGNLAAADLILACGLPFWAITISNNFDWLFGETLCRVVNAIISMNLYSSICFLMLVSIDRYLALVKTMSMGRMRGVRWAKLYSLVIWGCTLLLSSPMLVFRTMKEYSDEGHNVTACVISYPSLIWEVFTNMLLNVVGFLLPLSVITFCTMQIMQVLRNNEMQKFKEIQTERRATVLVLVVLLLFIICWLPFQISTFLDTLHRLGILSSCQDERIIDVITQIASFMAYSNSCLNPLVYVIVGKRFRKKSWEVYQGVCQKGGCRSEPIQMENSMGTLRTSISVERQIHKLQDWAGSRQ
Method: In general, Anti-bradykinin activity was determined by the classical guinea pig ileum assay and on Chinese hamster ovary (CHO) cells expressing cloned human bradykinin B2 receptors. Anti-tumor activity was determined on cultured human cancer cell lines using the standard tetrazolium (MTT) assay.
Chinese hamster ovary cells containing cloned and expressed human bradykinin B2 receptors were grown in cell cups of the Cytosensor microphysiometer in Ham's F-12 medium supplemented with sodium pyruvate and 10% FBS (Gibco 11765-054). For assay the cells were transferred to Ham's F-12 without bicarbonate or serum (Gibco 21700-075) and placed in the Cytosensor. Concentration-response curves were constructed to bradykinin in the presence or absence of new compounds.

[4] = isolated guinea pig ileum, pD2 of bradykinin is 7.4, higher numbers indicate higher potency
[5] = cloned human B2 receptors, pD2 for bradykinin is 11
[6] = Table 1, higher numbers indicate higher potency

Compound	MTT: ED50 for killing of SCLC strain SHP-77 in vitro ([1]; SCLC strain SHP-77 in vitro)	HUMAN: pA2 for bradykinin antagonist potency on cloned human B2 receptors [3, 5]	MTT: ED50 for killing of SCLC strain SHP-77 in vitro ([1]; Table 1, SHP-77, MTT, 4 days)	GPI: pA2 for bradykinin antagonist activity on isolated guinea pig ileum [2, 6]	other results
CC1(C)CC(NC(=O)[C@H](Cc2ccc3ccccc3c2)NC(=NC2CCCCC2)NC2CCCCC2)CC(C)(C)N1 [M222]	15 µM	Inact			GPI: pA2 for bradykinin antagonist activity on isolated guinea pig ileum [2, 4]: 6.8
CC1(C)CC(NC(=O)C(NC(=O)C=Cc2ccc(NC(=O)CCCCCCCCCCC(=O)Nc3ccc(C=CC(=O)NC(C(=O)NC4CC(C)(C)NC(C)(C)C4)C4Cc5ccccc5C4)cc3)cc2)C2Cc3ccccc3C2)CC(C)(C)N1 (centres unmarked) [M294]	1.8 µM	10.3			GPI: pA2 for bradykinin antagonist activity on isolated guinea pig ileum [2, 4]: Inact
CC1(C)CC(NC(=O)[C@H](Cc2ccc3ccccc3c2)NC(=O)C=Cc2ccc(NC(=O)CCCCCCCCCCC(=O)Nc3ccc(C=CC(=O)N[C@@H](Cc4ccc5ccccc5c4)C(=O)NC4CC(C)(C)NC(C)(C)C4)cc3)cc2)CC(C)(C)N1 [M310]	1.2 µM	Inact			GPI: pA2 for bradykinin antagonist activity on isolated guinea pig ileum [2, 4]: 5.1
O=C(C=Cc1cccnc1)NC(Cc1ccc2ccccc2c1)C(=O)NC1CCCCC1 (centres unmarked) [M408]	22 µM	11.5			GPI: pA2 for bradykinin antagonist activity on isolated guinea pig ileum [2, 4]: 4.6
CC1(C)CC(NC(=O)C(Cc2csc3ccccc23)NC(=O)C=Cc2c(F)c(F)c(F)c(F)c2F)CC(C)(C)N1 (centres unmarked) [M418]	3.8 µM	10.3			GPI: pA2 for bradykinin antagonist activity on isolated guinea pig ileum [2, 4]: 7.0
O=C(C=Cc1cccnc1)Nc1ccc(C(=O)NC(Cc2ccc3ccccc3c2)C(=O)O)cc1 (centres unmarked) [M422]	52 µM	Inact			
CC1(C)CC(NC(=O)[C@H](Cc2csc3ccccc23)NC(=O)CCCCCCCCCCC(=O)N[C@@H](Cc2csc3ccccc23)C(=O)NC2CC(C)(C)NC(C)(C)C2)CC(C)(C)N1 [M430]	18 µM	11.3			GPI: pA2 for bradykinin antagonist activity on isolated guinea pig ileum [2, 4]: 5.3
CC1(C)CC(NC(=O)[C@H](CC(=O)O)NC(=O)[C@H](Cc2ccc3ccccc3c2)NC(=O)CCCCCCCCCCC(=O)N[C@@H](Cc2ccc3ccccc3c2)C(=O)N[C@@H](CC(=O)O)C(=O)NC2CC(C)(C)NC(C)(C)C2)CC(C)(C)N1 [M432]	70 µM	10			
O=C(C=Cc1cccnc1)NC(Cc1ccc2ccccc2c1)C(=O)Nc1cccc(CO)c1 (centres unmarked) [M474]	35 µM	Inact			
CN(C)c1ccc(CNC(=O)C(Cc2ccc3ccccc3c2)NC(=O)C=Cc2c(F)c(F)c(F)c(F)c2F)cc1 (centres unmarked) [M536]	4 µM	Inact			
CN(C)c1cccc2c(S(=O)(=O)NC(Cc3ccc(OCc4ccccc4)cc3)C(=O)NC3CC(C)(C)NC(C)(C)C3)cccc12 (centres unmarked) [M574]	4.5 µM	Inact			
CC1(C)CC(NC(=O)C(NC(=O)C=Cc2ccc(NC(=O)CCCCCCCCC(=O)O)cc2)C2Cc3ccccc3C2)CC(C)(C)N1 (centres unmarked) [M586-B]	40 µM	12.3			
CC1(C)CC(NC(=O)C(Cc2ccc(OCc3c(Cl)cccc3Cl)cc2)NC(=O)C(C#N)=Cc2ccc(O)cc2)CC(C)(C)N1 (centres unmarked) [M602]	12 µM	10.8			
DDD-(Arg-DIgl-Oic-Arg-OMe)2 [M598]			13 µM		HUMAN: pA2 for bradykinin antagonist potency on cloned human B2 receptors ([3]; Table 1): 10
DDD-(DArg-OC2Y-Arg)2 [M518]			15 µM		HUMAN: pA2 for bradykinin antagonist potency on cloned human B2 receptors ([3]; Table 1): 10
DDD-(Eac-Arg-DIgl-Oic-Arg-OMe)2 [M608]			13 µM		HUMAN: pA2 for bradykinin antagonist potency on cloned human B2 receptors ([3]; Table 1): Inact
F5c-MFF-Arg [M826]			76 µM	Inact	
F5c-NMF-Arg [M686]			29 µM	5.6	
F5c-PFF-Arg [M718]			9 µM	5.1	
F5c-PaF(Ppa)-Arg [M720]			Inact	4.8	
F5c-pABz-2Nal-Arg [M176]			Inact	5.4	
Leu-DTrp-Phe-DTrp-DNMF-Eac2-DArg-Arg-Pro-Hyp-Gly-Igl-Ser-DIgl-Oic-Arg [B10160]			10 µM	6.3	

Compound	MTT: ED50 for killing of SCLC strain SHP-77 in vitro ([1]; SCLC strain SHP-77 in vitro)	HUMAN: pA2 for bradykinin antagonist potency on cloned human B2 receptors [3, 5]	MTT: ED50 for killing of SCLC strain SHP-77 in vitro ([1]; Table 1, SHP-77, MTT, 4 days)	GPI: pA2 for bradykinin antagonist activity on isolated guinea pig ileum [2, 6]	other results
Leu-Leu-DTrp-Phe-DTrp-DNMF-Eac2-DArg-Arg-Pro-Hyp-Gly-Igl-Ser-Digl-Oic-Arg [B10162]			7 µM	6.3	
Moti-DArg-Arg-Pro-Hyp-Gly-Igl-Ser-DIgl-Oic-Arg [B10100-1]			4 µM	7.8	
Moti-DArg-Arg-Pro-Hyp-Gly-Thi-Ser-DIgl-Oic-Arg [B10104-3]			20 µM	8.1	
Ppa-hPhe-Arg [M708]			Inact	5.8	
SBEC-(DArg-Arg-Eac-Ser-DF5F-Nc7G-Arg)2 [M1028]			28 µM	6.7	
SUB-(DArg-Arg-Eac-Ser-DF5f-Nc7G-Arg)2 [M1024]			14 µM	7.2	
SUIM-(DArg-Arg-Pro-Hyp-Gly-Igl-Ser-DIgl-Oic-Arg-NH2)2 [B10082]			0.7 µM	7.2	
TDIM-(DArg-Arg-Pro-Hyp-Gly-Igl-Ser-DIgl-Oic-Arg)2 [B10100-2]			1 µM	8.0	
TDIM-(DArg-Arg-Pro-Hyp-Gly-Thi-Ser-DIgl-Oic-Arg)2 [B10104-2]			4 µM	8.0	
c[Ava-Igl-Ser-DF5F-Oic-Arg] [M824]					MTT: ED50 for killing of SCLC strain SHP-77 in vitro ([1]; Table 3, cyclic peptides): Inact; GPI: pA2 for bradykinin antagonist activity on isolated guinea pig ileum ([2]; Table 3, cyclic peptides): 5.2
c[Bala-DArg-Arg-Eac-Ser-DF5F-Oic-Arg] [M910]					MTT: ED50 for killing of SCLC strain SHP-77 in vitro ([1]; Table 3, cyclic peptides): 42 µM; GPI: pA2 for bradykinin antagonist activity on isolated guinea pig ileum ([2]; Table 3, cyclic peptides): 5.2
c[DArg-Arg-Add-DF5F-Oic-Arg] [M870]					MTT: ED50 for killing of SCLC strain SHP-77 in vitro ([1]; Table 3, cyclic peptides): 5.5 µM; GPI: pA2 for bradykinin antagonist activity on isolated guinea pig ileum ([2]; Table 3, cyclic peptides): 5.3
c[DArg-Arg-Add-Ser-DF5F-Oic-Arg] [M874]					MTT: ED50 for killing of SCLC strain SHP-77 in vitro ([1]; Table 3, cyclic peptides): 11 µM; GPI: pA2 for bradykinin antagonist activity on isolated guinea pig ileum ([2]; Table 3, cyclic peptides): 5.0
c[DArg-Arg-Add-Ser-DIgl-PFF-Arg] [M882]					MTT: ED50 for killing of SCLC strain SHP-77 in vitro ([1]; Table 3, cyclic peptides): 4.5 µM; GPI: pA2 for bradykinin antagonist activity on isolated guinea pig ileum ([2]; Table 3, cyclic peptides): Inact
c[DArg-Arg-Aud-DF5F-Oic-Arg] [M868-2]					MTT: ED50 for killing of SCLC strain SHP-77 in vitro ([1]; Table 3, cyclic peptides): 9.2 µM; GPI: pA2 for bradykinin antagonist activity on isolated guinea pig ileum ([2]; Table 3, cyclic peptides): 6.1
c[DArg-Arg-Aud-DIgl-PFF-Arg] [M850]					MTT: ED50 for killing of SCLC strain SHP-77 in vitro ([1]; Table 3, cyclic peptides): 1.4 µM; GPI: pA2 for bradykinin antagonist activity on isolated guinea pig ileum ([2]; Table 3, cyclic peptides): 5.1
c[DArg-Arg-Aud-Ser-DF5F-Oic-Arg] [M876]					MTT: ED50 for killing of SCLC strain SHP-77 in vitro ([1]; Table 3, cyclic peptides): 22.5 µM; GPI: pA2 for bradykinin antagonist activity on isolated guinea pig ileum ([2]; Table 3, cyclic peptides): 5.4
c[DArg-Arg-Ava-Ser-DF5F-Oic-Arg] [M908]					MTT: ED50 for killing of SCLC strain SHP-77 in vitro ([1]; Table 3, cyclic peptides): 40 µM; GPI: pA2 for bradykinin antagonist activity on isolated guinea pig ileum ([2]; Table 3, cyclic peptides): 4.9
c[DArg-Arg-Ava-Ser-DIgl-PFF-Arg] [M902]					MTT: ED50 for killing of SCLC strain SHP-77 in vitro ([1]; Table 3, cyclic peptides): 30 µM; GPI: pA2 for bradykinin antagonist activity on isolated guinea pig ileum ([2]; Table 3, cyclic peptides): 5.5
c[DArg-Arg-Eac-Ser-DF5F-Oic-Arg] [M872]					MTT: ED50 for killing of SCLC strain SHP-77 in vitro ([1]; Table 3, cyclic peptides): 2.2 µM; GPI: pA2 for bradykinin antagonist activity on isolated guinea pig ileum ([2]; Table 3, cyclic peptides): Inact
c[DArg-Arg-Pro-Hyp-Gly-Igl-Ser-DIgl-Oic-Arg] [B10302]					MTT: ED50 for killing of SCLC strain SHP-77 in vitro ([1]; Table 3, cyclic peptides): Inact; GPI: pA2 for bradykinin antagonist activity on isolated guinea pig ileum ([2]; Table 3, cyclic peptides): 5.2
